Experimental data as given in patent publication US3966715A, “Herbicidal agents” (Bayer Aktiengesellschaft, priority 1966, dated 1976).

Tests used:
Galinsoga = test: Post-emergence test, Galinsoga; format: in vivo; settings: three weeks
Method: (§1) Solvent: 5 parts by weight acetone
(§2) 1 part by weight benzyloxypolyglycol ether
(§3) To produce a suitable preparation of the particular active compound, 1 part by weight of such active compound is mixed with the stated amount of solvent, the stated amount of emulsifier is then added and the resulting concentrate is thereafter diluted with water to the desired final concentration.
(§4) Test plants which have a height of about 5--15 cm. are sprayed with the preparation of the given active compound until just dew moist. After three weeks, the degree of damage to the plants is determined and characterized by the values 0-5, which have the following meaning:
(§5) The procedure of Example 2 is repeated, and the particular active compounds tested, and amounts applied, and the results obtained can be seen from the following Table 2E: […]

Echinochloa [1] = test: Pre-emergence test, Echinochloa; format: in vivo; settings: three weeks
Method: as §1, §2, §3
(§6) Seeds of the test plants are sown in normal soil and, after 24 hours, watered with the preparation of the given active compound. It is expedient to keep constant the amount of water per unit area. The concentration of the particular active compound in the preparation is of no importance, only the amount of active compound applied per unit area being decisive. After three weeks, the degree of damage to the test plants is determined and characterized by the values 0-5, which have the following meaning:
(§7) The procedure of Example 1 is repeated, and the particular active compounds tested, the amounts applied, and the results obtained can be seen from the following Table 1D: […]

Oats [2] = test: Post-emergence test, oats; format: in vivo; settings: three weeks
Method: as §1, §2, §3, §4, §5

dwarf beans = test: Defoliant test; format: in vivo; settings: 0.05% active compound
Method: There is prepared, in the same manner as described in Example 1, an active compound preparation which contains 0.05% of
(1a") 3-methylthio-4-amino-6-phenyl-1,2,4-triazine-5-one.
A field of dwarf beans is sprayed with this preparation of the active compound so that the dwarf beans themselves are only just dripping wet.

test plants [3] = test: Pre-emergence test, overall; format: in vivo; settings: Example 1
Method: as §1, §2, §3, §6, §7

Oats [4] = test: Pre-emergence test, oats; format: in vivo; settings: three weeks
Method: as §1, §2, §3, §6, §7

Wheat [5] = test: Pre-emergence test, wheat; format: in vivo; settings: three weeks
Method: as §1, §2, §3, §6, §7

Chenopodium = test: Post-emergence test, Chenopodium; format: in vivo; settings: three weeks
Method: as §1, §2, §3, §4, §5

Sinapis [6] = test: Post-emergence test, Sinapis; format: in vivo; settings: three weeks
Method: as §1, §2, §3, §4, §5

Sinapis [7] = test: Pre-emergence test, Sinapis; format: in vivo; settings: three weeks
Method: as §1, §2, §3, §6, §7

Wheat [8] = test: Post-emergence test, wheat; format: in vivo; settings: 2.4 Kg/hectare, three weeks
Method: as §1, §2, §3, §4, §5

test plants [9] = test: Post-emergence test, overall; format: in vivo
Method: as §1, §2, §3, §4, §5

soybeans = test: Pre-emergence selectivity, soybeans; format: in vivo
plants and weeds = test: General herbicidal activity; format: in vivo; settings: for usefulness as herbicide: compared with compound 221
Stellaria = test: Post-emergence test, Stellaria; format: in vivo; settings: 0.6 Kg/hectare, three weeks
Method: as §1, §2, §3, §4, §5

Cotton [10] = test: Pre-emergence test, cotton; format: in vivo; settings: three weeks
Method: as §1, §2, §3, §6, §7

Echinochloa [11] = test: Post-emergence test, Echinochloa; format: in vivo; settings: 1.2 Kg/hectare, three weeks
Method: as §1, §2, §3, §4, §5

Cotton [12] = test: Post-emergence test, cotton; format: in vivo; settings: 1.2 Kg/hectare, three weeks
Method: as §1, §2, §3, §4, §5

cotton and tomatoes = test: Pre-emergence selectivity, cotton and tomatoes; format: in vivo; settings: pre-emergence application
[13] = test system: corn, potatoes, millet and peanuts; test: Use in growing corn, potatoes, millet and peanuts; format: in vivo; settings: 0.3-2 kg/hectare
rats = test: Oral toxicity in rats; settings: in words
Oral toxicity in rats = settings: rat, in vivo, po
Alternaria = test: Fungicidal activity; format: in vivo; settings: particularly against Alternaria
nematoeds = test: Nematocidal activity on the soil; format: in vivo; settings: 1 Kg/hectare

In the case of `CCNc1nc(Cl)nc(NCC)n1` [A, 2,6-di-(ethylamino)-4-chloro-1,3,5-triazine, reference compound], the “degree of damage, Galinsoga” value (Galinsoga; 0.1 % active compound) was 4-5 and the “degree of damage, Echinochloa” value (Echinochloa [1]; 5 kg/hectare) was 3-4.

In the case of `CSc1nnc(-c2ccccc2)c(=O)n1N` [Compound 1a, 3-methylthio-4-amino-6-phenyl-1,2,4-triazine-5-one], the “degree of damage, Oats” value (Oats [2]; 1.2 Kg/hectare) was 4-5, the “degree of damage, Oats” value (Oats [2]; 2.4 Kg/hectare) was 4-5 and the “harvesting of the beans” value (dwarf beans) was “quite considerably facilitated”. The “drying up of leaves” value (dwarf beans; after 8 days) was “completely dried up” and the “degree of damage, Echinochloa” value (Echinochloa [1]; 1.25 kg/hectare) was 4-5.

For `CSc1nnc(C2CCCCC2)c(=O)n1N` [Compound 2, 3-methylthio-4-amino-6-cyclohexyl-1,2,4-triazine-5-one], the “kind of herbicidal action” value (test plants [3]) was “pronouncedly total-herbicidal action”, the “degree of damage, Oats” value (Oats [4]; 1.25 kg/hectare) was 4-5 and the “degree of damage, Wheat” value (Wheat [5]; 1.25 kg/hectare) was 4-5.

With `CCSc1nnc(-c2ccccc2)c(=O)n1N` [Compound 3, 3-ethylthio-4-amino-6-phenyl-1,2,4-triazine-5-one] the “kind of herbicidal action” value (test plants [3]) was “selectively herbicidal action in wheat and cotton”.

With `Nn1c(N2CCCCC2)nnc(-c2ccccc2)c1=O` [Compound 25, 3-piperidino-4-amino-6-phenyl-1,2,4-triazine-5-one] the “degree of damage, Chenopodium” value (Chenopodium; 10 Kg/hectare) was 3-4 and the “degree of damage, Sinapis” value (Sinapis [6]; 10 Kg/hectare) was 4-5.

With `CCNc1nnc(C(C)C)c(=O)n1N` [Compound 177, 3-ethylamino-4-amino-6-isopropyl-1,2,4-triazine-5-one] the “degree of damage, Oats” value (Oats [2]; 2.4 Kg/hectare) was 4-5, the “degree of damage, Galinsoga” value (Galinsoga; 2.4 Kg/hectare) was 4-5 and the “degree of damage, Sinapis” value (Sinapis [7]; 5 kg/hectare) was 4-5. The “degree of damage, Wheat” value (Wheat [8]) was 4-5 and the “degree of damage, Oats” value (Oats [4]; 2.5 kg/hectare) was 4-5.

With `CSc1nnc(C(C)C)c(=O)n1NC(O)C(Cl)(Cl)Cl` (stereo not drawn) [Compound 191, 3-methylthio-4-(β-trichloro-α-hydroxy-ethyl)-amino-6-isopropyl-1,2,4-triazine-5-one] the “degree of damage, Sinapis” value (Sinapis [6]; 1.2 Kg/hectare) was 4-5.

In the case of `CSc1nnc(C(C)(C)C)c(=O)n1N=C1CCCCC1` [Compound 221, 3-methylthio-4-(cyclohexylidene-amino)-6-tert.-butyl-1,2,4-triazine-5-one], the general herbicidal activity (test plants [9]) was “very good general herbicidal activity”, the selectivity (soybeans) was “selective for soybeans” and the “degree of damage, Wheat” value (Wheat [8]) was 4-5. For the same compound, the “degree of damage, Wheat” value (Wheat [5]; 1.25 kg/hectare) was 4-5.

In the case of `CSc1nnc(C(C)(C)C)c(=O)n1N=Cc1ccco1` [Compound 222, 3-methylthio-4-(furfur-2'-ylidene-amino)-6-tert.-butyl-1,2,4-triazine-5-one], the “degree of damage, Sinapis” value (Sinapis [7]; 1.25 kg/hectare) was 4-5, the usefulness as herbicide (plants and weeds) was “similarly useful” and the “degree of damage, Stellaria” value (Stellaria) was 4-5. The “degree of damage, Wheat” value (Wheat [8]) was 4-5, the “degree of damage, Oats” value (Oats [4]; 1.25 kg/hectare) was 4-5 and the “degree of damage, Wheat” value (Wheat [5]; 5 kg/hectare) was 4-5. The “degree of damage, Cotton” value (Cotton [10]; 1.25 kg/hectare) was 4-5.

With `CSc1nnc(C(C)C)c(=O)n1N=C1CCCC1` [Compound 223, 3-methylthio-4-(cyclopentylidene-amino)-6-isopropyl-1,2,4-triazine-5-one] the “degree of damage, Chenopodium” value (Chenopodium; 1.2 Kg/hectare) was 4-5, the “degree of damage, Sinapis” value (Sinapis [7]; 1.25 kg/hectare) was 4-5 and the usefulness as herbicide (plants and weeds) was “similarly useful”. For the same compound, the “degree of damage, Echinochloa” value (Echinochloa [11]) was 4-5, the “degree of damage, Cotton” value (Cotton [12]) was 4-5 and the “degree of damage, Oats” value (Oats [4]; 1.25 kg/hectare) was 4-5. For the same compound, the “degree of damage, Wheat” value (Wheat [5]; 2.5 kg/hectare) was 4-5, the “degree of damage, Wheat” value (Wheat [5]; 5 kg/hectare) was 4-5 and the “degree of damage, Cotton” value (Cotton [10]; 2.5 kg/hectare) was 4-5. The “degree of damage, Cotton” value (Cotton [10]; 5 kg/hectare) was 4-5.

In the case of `CSc1nnc(C(C)(C)C)c(=O)n1N=Cc1ccccc1` [Compound 236], the selectivity (cotton and tomatoes) was “selective as to cotton and tomatoes”, the “effectiveness in growing crops” value [13] was “effective in growing corn, potatoes, millet and peanuts” and the toxicity (rats) was “quite low”. The LD50 (Oral toxicity in rats) was 1000 mg/kg, the general properties (plants and weeds; compared with compounds 221, 222, 223) was “same general properties” and the fungicidal activity (Alternaria) was “exhibits fungicidal activity, particularly against Alternaria”. For the same compound, the killing of nematodes (nematoeds) was “kills nematoeds”.
